Legend:
BDNF and NGF mRNAs = experiment: BDNF and NGF mRNA prevalence in brain regions (anti-sense cRNA assays); assay type: in vivo; conditions: for NGF message levels in the dentate gyrus granule cell layers: ampakine-stimulated versus vehicle-treated control; for BDNF and NGF mRNAs in layer II of the piriform cortex: systemic, CX516 30 mg/kg/day, CX691 3 mg/kg/day
Excerpt: Ampakines enhanced NGF mRNA somewhat more than that of BDNF.

[1] = tested on: fragile X syndrome (FXS) patients; conditions: in vivo; cited from earlier work

| SMILES | NGF message levels in the dentate gyrus granule cell layers (BDNF and NGF mRNAs) | BDNF and NGF mRNAs in layer II of the piriform cortex (BDNF and NGF mRNAs) | Memory, language use, attention, executive and overall functioning in FXS [1] | Concentration at which seizure activity is seen in hippocampal slices (hippocampal slices) [µM] |
| --- | --- | --- | --- | --- |
| O=C(c1ccc2nccnc2c1)N1CCCCC1 [CX516] | significantly enhanced | significantly up-regulated | did not exhibit improved memory |  |
| O=C(c1ccc2nonc2c1)N1CCCCC1 [CX691] | significantly enhanced | significantly up-regulated |  |  |
| O=C1c2cc3c(cc2OC2CCCN12)OCCO3 (stereo not drawn) [CX614, reference compound] |  |  |  | 16 |
